Measured values from patent publication US6608082B1, “Treatment of erectile dysfunction using isoquinoline compound melanocortin receptor ligands” (Lion Bioscience AG, priority 1998, dated 2003).
Where “and” joins values, the source holds several entries; their conditions need not be identical. Equal entries are not always repeated.

Legend:
MCR-5 = target: T1, MCR-5 (Homo sapiens, UniProt P33032); assay: Melanocortin receptor binding assay, competition with 125I-HP 467, HEK 293 cells expressing hMCR-5; details: binding to MCR-5, HEK 293 cells; read-out: MC-5 IC50
T1 construct: expressed in transfected cells; host or cells: HEK 293
T1 sequence (P33032 whole entry): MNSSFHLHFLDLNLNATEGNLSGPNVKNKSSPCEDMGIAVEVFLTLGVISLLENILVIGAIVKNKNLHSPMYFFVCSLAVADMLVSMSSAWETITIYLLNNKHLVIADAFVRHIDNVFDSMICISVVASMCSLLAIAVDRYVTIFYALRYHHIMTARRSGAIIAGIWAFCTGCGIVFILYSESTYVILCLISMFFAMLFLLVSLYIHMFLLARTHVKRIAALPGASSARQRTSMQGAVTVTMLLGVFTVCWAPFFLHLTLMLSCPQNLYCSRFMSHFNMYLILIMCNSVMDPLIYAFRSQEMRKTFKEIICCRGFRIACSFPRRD
Text: (§1) All cell culture media and reagents were obtained from GibcoBRL (Gaithersburg Md.), except for COSMIC CALF SERUM (HyClone; Logan Utah). HEK-293 cell lines were transfected with the human MC receptors hMCR-1, hMCR-3, and hMCR-4 (Gantz et al., Biochem. Biophys. Res. Comm. 200:1214-1220 (1994); Gantz et al., J. Biol. Chem. 268:8246-8250 (1993); Gantz et al. J. Biol. Chem. 268:15174-15179 (1993); Haskell-Leuvano et al., Biochem. Biophys. Res. Comm. 204:1137-1142 (1994); each of which is incorporated herein by reference). Vectors for construction of an hMCR-5 expressing cell line were obtained, and a line of HEK 293 cells expressing hMCR-5 was constructed (Gantz, supra, 1994). hMCR-5 has been described previously (Franberg et al., Biochem. Biophys. Res. Commun. 236:489-492 (1997); Chowdhary et al., Cytogenet. Cell Genet. 68:1-2 (1995); Chowdhary et al., Cytogenet. Cell Genet. 68:79-81 (1995), each of which is incorporated herein by reference). HEK 293 cells were maintained in DMEM, 25 mM HEPES, 2 mM glutamine, non-essential amino acids, vitamins, sodium pyruvate, 10% COSMIC CALF SERUM, 100 units/ml penicillin, 100 μg/ml streptomycin and 0.2 mg/ml G418 to maintain selection.
(§2) Before assaying, cells were washed once with phosphate buffered saline (“PBS”; without Ca^2+ and Mg^2+), and stripped from the flasks using 0.25% trypsin and 0.5 mM EDTA. Cells were suspended in PBS, 10% COSMIC CALF SERUM and 1 mM CaCl2. Cell suspensions were prepared at a density of 2×10^4 cells/ml for HEK 293 cells expressing hMCR-3, hMCR-4 or hMCR-5, and 1×10^5 cells/ml for HEK 293 cells expressing hMCR-1. Suspensions were placed in a water bath and allowed to warm to 37° C. for 1 hr.
(§3) Binding assays were performed in a total volume of 250 μl for HEK 293 cells. Control and test compounds were dissolved in distilled water. ^125I-HP 467 (50,000 dpm) (2000 Ci/mmol) (custom labeled by Amersham; Arlington Heights Ill.) was prepared in 50 mM Tris, pH 7.4, 2 mg/ml BSA, 10 mM CaCl2, 5 mM MgCl2, 2 mM EDTA and added to each tube. To each tube was added 4×10^3 HEK 293 cells expressing hMCR-3, hMCR-4 or hMCR-5, or 2×10^4 cells expressing hMCR-1. Assays were incubated for 2.5 hr at 37° C.
(§4) GF/B filter plates were prepared by soaking for at least one hour in 5 mg/ml BSA and 10 mM CaCl2. Assays were filtered using a Brandel 96-well cell harvester (Brandel Inc.; Gaithersburg, Md.). The filters were washed four times with cold 50 mM Tris, pH 7.4, the filter plates were dehydrated for 2 hr and 35 μl of MICROSCINT was added to each well. Filter plates were counted using a Packard Topcount (Packard Instrument Co.) and data analyzed using GraphPad PRISM v2.0 (GraphPad Software Inc.; San Diego Calif.) and Microsoft EXCEL v5.0a (Microsoft Corp.; Redmond Wash.).
(§5) To assay isoquinoline compounds, binding assays were performed in duplicate in a 96 well format. HP 467 was prepared in 50 mM Tris, pH 7.4, and ^125I-HP 467 was diluted to give 100,000 dpm per 50 μl. An isoquinoline compound, synthesized as described in Example I, was added to the well in 25 μl aliquots. A 25 μl aliquot of ^125I-HP 467 was added to each well. A 0.2 ml aliquot of suspended cells was added to each well to give the cell numbers indicate above, and the cells were incubated at 37° C. for 2.5 hr. Cells were harvested on GF/B filter plates as described above and counted.
(§6) Some of the isoquinoline compounds were further tested for binding to MCR-3 and MCR-5.

TNF-α = assay: Reduction of lipopolysaccharide-induced tumor necrosis factor levels in mice; format: in vivo, BALB/c female mice; details: for % TNF-α Inhibtion, IP 300 / % TNF-α Inhibtion, Oral 300: 300 μg per mouse; for % TNF-α Inhibtion, IP 300 / % TNF-α Inhibtion, IP 30 / % TNF-α Inhibtion, IP 100 / % TNF-α Inhibtion, Oral 600 / % TNF-α Inhibtion, Oral 300: plasma 90 or 105 minutes after LPS, mean ± SEM; for % TNF-α Inhibtion, IP 30: 30 μg per mouse; for % TNF-α Inhibtion, IP 100: 100 μg per mouse; for % TNF-α Inhibtion, Oral 600: 600 μg per mouse
Procedure: BALB/c female mice weighing approximately 20 g were placed into a control group and a treated group. Five mg/kg of LPS in 0.9% saline was administered (100 μl to give 100 μg LPS per mouse) by intraperitoneal (IP) injection to all mice. Mice in the treatment group received either 30, 100, 300 or 600 μg of various isoquinoline compounds per mouse in a volume of 100 μl of PBS. Control mice received 100 μl of saline alone. One minute after initial injections all mice received the LPS injection. As a positive control, 100 μg of HP 228 was injected per mouse.
Blood samples were collected from the orbital sinus of treated and control mice 90 minutes or 105 minutes after LPS administration. The plasma was separated by centrifugation at 3000×g for 5 min and stored at −20° C. Samples were thawed and diluted, if TNF-α concentration was greater than 3200 pg/ml, with PBS containing 1% bovine serum albumin, 10% donor horse serum, 1% normal mouse serum, 0.05% TWEEN-20 and 0.05% thimerosal. A 100 μl sample of plasma was assayed by ELISA for TNF-α. Briefly, ELISA plates were coated with hamster anti-mouse TNF-α antibody (Genzyme; Cambridge Mass.). Samples or known concentrations of TNF-α were added to the coated plates and incubated for 2 hr at 37° C. Plates were washed and subsequently incubated with biotinylated rabbit anti-mouse TNG-α for 1 hr at 37° C. Plates were washed and incubated with streptavidin-HRP for 1 hr at 37° C., and HRP activity was detected with hydrogen peroxide and o-phenylenediamine (OPD) using standard immunoassay procedures.
The mean (±SEM) TNF-α level in five mice from each group was determined and the percent reduction in TNF-α levels was calculated.

MCR-3 = target: T2, MCR-3 (Homo sapiens, UniProt P41968); assay: Melanocortin receptor binding assay, competition with 125I-HP 467, HEK 293 cells expressing hMCR-3; details: binding to MCR-3, HEK 293 cells; read-out: MC-3 IC50
T2 construct: expressed in transfected cells; host or cells: HEK 293
T2 sequence (P41968 whole entry): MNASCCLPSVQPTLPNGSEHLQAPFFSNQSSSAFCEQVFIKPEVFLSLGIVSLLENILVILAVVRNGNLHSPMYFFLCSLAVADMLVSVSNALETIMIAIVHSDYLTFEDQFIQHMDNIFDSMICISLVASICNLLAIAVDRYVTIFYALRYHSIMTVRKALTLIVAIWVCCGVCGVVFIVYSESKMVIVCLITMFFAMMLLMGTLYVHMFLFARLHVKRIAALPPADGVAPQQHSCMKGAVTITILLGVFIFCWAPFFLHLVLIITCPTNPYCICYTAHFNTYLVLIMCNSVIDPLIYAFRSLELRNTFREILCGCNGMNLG
Text: as §1, §2, §3, §4, §5, §6

| IC50 (MCR-5) | IC50 (MCR-3) | SMILES | % TNF-α Inhibtion, IP 300 (TNF-α) | % TNF-α Inhibtion, IP 30 (TNF-α) | % TNF-α Inhibtion, IP 100 (TNF-α) | decrease of TNF-α levels (TNF-α; LPS treated mice) | % TNF-α Inhibtion, Oral 600 (TNF-α) | % TNF-α Inhibtion, Oral 300 (TNF-α) | inhibiting TNF-α (TNF-α; LPS treated mice, both i.p. and oral administration) |
| --- | --- | --- | --- | --- | --- | --- | --- | --- | --- |
| > 10 µM | > 10 µM | CNC(CN)CCCCN1Cc2ccccc2C(CNC2CCCCC2)C1c1ccc2cccc(O)c2n1 (stereo not drawn) [TRG 2405-262] | 83 ± 3 % | – | – | – | – | – | – |
| 0.41 µM | 0.55 µM | CNC(CN)CCCCN1Cc2ccccc2C(CNC2CCCCC2)C1c1ccc(Br)cc1 (stereo not drawn) [TRG 2405-242] | 68 ± 5 % | 21 ± 8% | 60 ± 4 % | – | – | – | – |
| 1.86 µM | 6.49 µM | CNC(CN)CCCCN1Cc2ccccc2C(CNC2CCCCC2)C1c1ccc(Oc2ccccc2)cc1 (stereo not drawn) [TRG 2405-252] | 90 ± 2 % | 49 ± 14 % | – | particularly effective at decreasing TNF-α | 55 ± 13 % | – | – |
| 0.8 µM | 2.24 µM | CNC(CN)CCCCN1Cc2ccccc2C(CNC2CCCCC2)C1c1ccc(Cl)cc1Cl (stereo not drawn) [TRG 2405-190] | 83 ± 11 % | 70 ± 11 % | −6 ± 7% | particularly effective at decreasing TNF-α | – | – | – |
| 9.35 µM | 40.4 µM | CCNc1ccc(C2C(CNC3CCCCC3)c3ccccc3CN2CCCCC(CN)NC)cc1 (stereo not drawn) [TRG 2408-30] | 78 ± 3 % | 30 ± 14% | – | particularly effective at decreasing TNF-α | 74 ± 4 % | 42 ± 14 % | particularly effective at inhibiting TNF-α |
| 2.83 µM | 23.7 µM | CNC(CN)CN1Cc2ccccc2C(CNC2CCCCC2)C1c1ccc(O)cc1 (stereo not drawn) [TRG 2405-156] | 48 ± 16% | 30 ± 13% | 12 ± 7% | – | – | – | – |
| > 10 µM | > 10 µM | CNC(CN)CCCCN1Cc2ccccc2C(CNC2CCCCC2)C1c1ccc(O)cc1 (stereo not drawn) [TRG 2405-246] | 80 ± 3 % | 27 ± 9% | – | – | −29 ± 31 % | – | – |
| 2.77 µM | 9.68 µM | CCCOc1ccc(C2C(CNC3CCCCC3)c3ccccc3CN2CCCCC(CN)NC)cc1 (stereo not drawn) [TRG 2405-253] | 80 ± 7% | 46 ± 8% | – | particularly effective at decreasing TNF-α | – | – | – |

Second part, the molecule before the results:

| SMILES | IC50 (MCR-5) | IC50 (MCR-3) | % TNF-α Inhibtion, IP 300 (TNF-α) | % TNF-α Inhibtion, IP 30 (TNF-α) | % TNF-α Inhibtion, IP 100 (TNF-α) | decrease of TNF-α levels (TNF-α; LPS treated mice) | % TNF-α Inhibtion, Oral 600 (TNF-α) | % TNF-α Inhibtion, Oral 300 (TNF-α) | inhibiting TNF-α (TNF-α; LPS treated mice, both i.p. and oral administration) |
| --- | --- | --- | --- | --- | --- | --- | --- | --- | --- |
| CNC(CN)CCCCN1Cc2ccccc2C(CN)C1c1ccc(Cl)cc1Cl (stereo not drawn) [TRG 2407-39] | 0.24 µM | 0.28 µM | 72 ± 5 % | 24 ± 17% | – | – | – | – | – |
| CCCCNc1ccc(C2C(CNC3CCCCC3)c3ccccc3CN2CCCCC(CN)NC)cc1 (stereo not drawn) [TRG 2409-14] | – | – | 76 ± 7 % | 31 ± 7% | – | – | 67 ± 4 % | 41 ± 9 % | – |
| CNC(CN)CCCCN1Cc2ccccc2C(CNC2CCCCC2)C1c1ccc(N(C)C)cc1 (stereo not drawn) [TRG 2405-235] | 2.82 µM | 22.3 µM | 50 ± 9% | 8 ± 7% | 39 ± 7% | – | – | – | – |
| CNC(CN)CCCCN1Cc2ccccc2C(CNC2CCCCC2)C1c1ccc(-c2ccccc2)cc1 (stereo not drawn) [TRG 2405-241] | 1.04 µM | 7.45 µM | 45 ± 9% | 26 ± 15% | 75 ± 3 % | particularly effective at decreasing TNF-α | 74 ± 8 % | 38 ± 9 % | – |
| CNC(CN)CCCCN1Cc2ccccc2C(CNC2CCCCC2)C1c1ccc(C(F)(F)F)cc1 (stereo not drawn) [TRG 2405-238] | 0.43 µM | > 10 µM | 84 ± 18 % | 19 ± 7% | 73 ± 1 % | – | 6 ± 28% | – | – |
| CCNc1ccc(C2C(CNC3CCCCC3)c3ccccc3CN2CCCCC(CN)NC)cc1 (stereo not drawn) [TRG 2405-239] | 8.72 µM | 39.8 µM | 66 ± 9 % | 13 ± 8% | 10 ± 6% | – | 9 ± 14% | – | – |
| CCCCNc1ccc(C2C(CNCc3ccccc3O)c3ccccc3CN2CCCCC(CN)NC)cc1 (stereo not drawn) [TRG 2409-2] | – | – | 65 ± 14% | 57 ± 6 % | – | – | 65 ± 2 % | 58 ± 2 % | – |
| CCNc1ccc(C2C(CNC3CCCCC3)c3ccccc3CN2CCCC(CN)NCCc2ccccc2)cc1 (stereo not drawn) [TRG 2408-62] | 2.79 µM | 5.71 µM | 84 ± 8 % | 71 ± 6 % | – | – | 35 ± 5% | 45 ± 11% | – |
| CCNc1ccc(C2C(CNCc3ccccc3O)c3ccccc3CN2CCCC(CN)NCCc2ccccc2)cc1 (stereo not drawn) [TRG 2408-57] | 1.7 µM | 5.17 µM | 86 ± 2 % | 76 ± 8 % | 83 ± 2 % and 87 ± 5 % | – | 72 ± 7 % | 21 ± 11% | – |
